Key:
[1] = test system: spreading depolarization in mouse brain slices; assay: KCl-induced spreading depolarization threshold in mouse brain slices; format: cell-based; conditions: for KCl concentration necessary to initiate spreading depolarization (SD threshold): test compound alone in ACSF bath
Protocol: (§1) In brain slice studies normoxic SD is induced by briefly raising [K^+]o. An ischemic version of SD, the anoxic depolarization (AD), is induced by removing O2/glucose from the aCSF for about 10 min. Intrinsic optical signals (IOSs) represent change in the way tissue scatters light. Light transmittance (LT), essentially unscattered light, is imaged using a charge-coupled device (CCD) to measure second-by-second regional DLT during periods of 1 h or more. The front of the propagating SD or AD event is imaged as an elevated LT, caused by cell swelling. A negative voltage shift, the electrophysiological signature of SD, is simultaneously recorded extracellularly. Normoxic SD is typically the cortical occurrence in migraine, while an anoxic condition is more typical of ischemic attacks and stroke.
(§2) To determine the threshold for evoked spreading depolarization in mouse brain slices, mice (C57Bl6J, P30-50) were deeply anesthetized by ketamine/xylazine mix (i.p. 85 and […], respectively), cardiac perfused with cutting solution (110 mM N-Methyl-D-glucamine, 10 mM glucose, 6 mM magnesium sulfate, 3 mM KCl, 25 mM sodium bicarbonate, 1.25 mM sodium monophosphate, 0.2 mM calcium chloride, and 0.4 mM ascorbic acid equilibrated with 95% O2/5% CO2), and decapitated. The brain was rapidly extracted, cerebellum removed, forebrain hemisected, and 300 μm thick coronal slices were cut on a vibratome.
Slices were first incubated in the cutting solution at 37 C for 10 minutes and then transferred to artificial cerebrospinal fluid (“ACSF”: 126 mM sodium chloride, 10 mM glucose, 1 mM magnesium sulfate, 3 mM KCl, 25 mM sodium bicarbonate, 1.25 mM sodium monophosphate, 2 mM calcium chloride, and 0.4 mM ascorbic acid equilibrated with 95% O2/5% CO2).
(§3) In all in vitro experiments, a pair of slices were then transferred to a recording chamber continuously superfused with ACSF at […] 33-34° C. For pharmacological analysis, slices were pre-incubated in the recording chamber with test compound for at least for 20 minutes. Slow tissue depolarizations (SD) were detected by DC potential shift or imaging of intrinsic optical signals (IOS) in the brain slice. DC potential were recorded using glass pipette electrodes containing ACSF (2-3MO). Signals were amplified with a DC amplifier (MultiClamp 700B), digitized (Digidata 1550B) and analyzed with the Clampfit program ([…]). IOS were detected by acquiring images of brain slices with a CMOS camera (Hamamatsu ORCA). Images were acquired at 0.2-0.5 Hz and analyzed with imageJ software.
First, by incrementally elevating the KCl concentration of bath ACSF every 5 minutes (initial starting concentration of 6 mM, then elevated by +1 mM at 5-minute intervals). The KCl concentration that triggered the first SD was considered as the SD threshold. In experiments using the test drug (fenfluramine), the drug was added to the solution before the KCl challenge.

[2] = test system: spreading depolarization in cortical slices; assay: Oxygen/glucose deprivation (OGD) model of spreading depolarization in brain slices; format: cell-based, mouse; conditions: for time to onset of spreading depolarization: treatment vs non-treatment
Protocol: as §1
as §2, with “vibratome. […]” for “vibratome.”
as §3, with “For pharmacological analysis, slices were pre-incubated in the recording chamber with test compound for at least for 20 minutes.” left out, “software. […]” for “software.”

[3] = test system: GABA spontaneous inhibitory postsynaptic currents; assay: GABA spontaneous inhibitory postsynaptic currents (sIPSCs); format: cell-based; conditions: compound alone
Sig1R = conditions: with (+)-SKF-10,047; cited from earlier work
[4] = biological target: Sig1 receptor [Sig1R]/binding immunoglobulin protein (BiP) (Homo sapiens, UniProt Q99720); conditions: with PRE-084; cited from earlier work
[5] = cited from earlier work

Chain of Sig1 receptor [Sig1R]/binding immunoglobulin protein (BiP) (Q99720 whole entry): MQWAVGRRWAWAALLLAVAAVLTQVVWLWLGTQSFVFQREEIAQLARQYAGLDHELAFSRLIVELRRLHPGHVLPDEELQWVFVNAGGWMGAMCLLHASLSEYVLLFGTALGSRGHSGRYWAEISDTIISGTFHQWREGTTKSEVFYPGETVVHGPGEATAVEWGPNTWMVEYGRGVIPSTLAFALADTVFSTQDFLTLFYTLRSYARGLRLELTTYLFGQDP

In the case of `CCNC(C)Cc1cccc(C(F)(F)F)c1` (stereo not drawn) [fenfluramine, 3-trifluoromethyl-N-ethylamphetamine], the “protective effect of fenfluramine with addition of a 5-HT4 antagonist” value ([1]; KCl model, 5-HT4 antagonist added) is reported as “only slightly diminished”, the “KCl concentration necessary to initiate spreading depolarization (SD threshold)” value ([1]; KCl model) is reported as “raising the KCl concentration necessary to initiate spreading depolarization” and the “additivity or synergism on spreading depolarization threshold” value ([1]; fenfluramine with added serotonin) is reported as “lack of additivity or synergism”. For the same compound, the “fenfluramine's effects on spreading depolarization under blockade of the GABA receptors” value ([1]; with blockade of the GABA receptors) was “does not abolish”, the “time to onset of spreading depolarization” value ([2]; 0% oxygen and 0 mM glucose) was “non-significant difference” and the “time to onset of spreading depolarization” value ([2]; 0% oxygen and 2 mM glucose) was “significant increase in time to onset”. The “effect on SD under anoxic conditions (AD)” value ([2]; anoxic conditions) was “positive effect”, the “GABA spontaneous inhibitory postsynaptic currents” value [3] was “increase” and the “(+)-SKF-10,047-induced increase in the twitch contraction amplitude” value (Sig1R) was “potentiated”. For the same compound, the “Sig1R/BiP dissociation induced by the Sig1R agonist PRE-084” value [4] was “potentiated”, the “cardiac adverse effects with chronic use” value ([5]; chronic use at doses of 60 to 120 mg, some patients) was “cardiac valve abnormalities or pulmonary hypertension” and the anticonvulsant/antiseizure activity ([5]; low dose, Dravet Syndrome and Lennox Gastaut syndrome) was “anticonvulsant/antiseizure activity”.

For `NCCc1c[nH]c2ccc(O)cc12` [serotonin, 5-hydroxytryptamine], the “GABA spontaneous inhibitory postsynaptic currents” value [3] was “increase”.

For `COc1ccc2c(c1)[C@]13CCCC[C@@H]1[C@H](C2)N(C)CC3` [dextromethorphan], the “KCl concentration necessary to initiate spreading depolarization (SD threshold)” value ([1]; KCl model) was “raising the spreading depolarization threshold”.

With `CN1CC2c3ccccc3Oc3ccc(Cl)cc3C2C1` (stereo not drawn) [asenapine] the “effect of multi-5-HT receptor antagonist on protective effects of fenfluramine” value ([1]; KCl model, asenapine added to fenfluramine) was “did not affect”.

Reference: US20240299317A1, “Fenfluramine for Treatment of Conditions Associated with Spreading Depolarization” (ZOGENIX INTERNATIONAL LIMITED, priority 2021, published 2024)
